Measurements published in patent publication US4102886A, “Process for the preparation of benzo(a)quinolizidine derivatives” (priority 1974, dated 1978).

Assays:
[1] = Inhibition of kaolin-induced oedema; assay type: in vivo; details: in vivo; LD50/ED50; read-out: Therapeutical index LD50/ED50, kaolin-oedema
Method: (§1) Inhibition of Kaolin- and carrageenin-induced oedema
(§2) The tests were carried out on groups each consisting of at least 10 animals. The percentage inhibition of oedema, in relation to the untreated controls, was determined for each of the animals, and the average values were calculated.

kaolin-induced oedema = test: Inhibition of kaolin-induced oedema; assay type: in vivo; details: 2 hours
Method: as §1, §2

[2] = Inhibition of carrageenin-induced oedema; assay type: in vivo; details: in vivo; LD50/ED50; read-out: Therapeutical index LD50/ED50, carrageenin-oedema
Method: as §1, §2

[3] = tested on: carrageenin-induced oedema; test: Inhibition of carrageenin-induced oedema; assay type: in vivo; details: 1.5 hours
Method: as §1, §2

Cotton granuloma = Cotton granuloma test; assay type: in vivo; details: 50 mg./kg.
[4] = tested on: serotonine-induced oedema; test: Tests performed on serotonine-induced oedema; assay type: in vivo
Method: Tests performed on serotonine-induced oedema
The tests were carried out on groups each consisting of 10 animals. The percentage inhibition of oedema, in relation to the untreated controls, was determined for each of the animals. The data listed in Table 3 are the averages of the inhibition values.

[5] = tested on: experimentally provoked fever; test: Antipyretic activity (experimentally provoked fever); assay type: in vivo; design: unit not given here
Source text: Besides their antiphlogistic activities, some of the benzo(a)quinolizidine derivatives exert antipyretic effects as well. On the basis of the tests performed on experimentally provoked fever, the antipyretic activities of the compounds according to the invention surpass the effect of amidazophenum.

[6] = Analgesic effect by the hot-plate test; assay type: in vivo; details: 50 mg./kg. p.o.
[7] = Analgesic effect by the writhing test; assay type: in vivo; details: 50 mg./kg. p.o.
central nervious system = test: Narcosis potentiating effect; assay type: in vivo
Acute toxicity tests = assay type: in vivo; details: rat, in vivo, po; rats, Litchfield-Wildoxon method
Method: The acute toxicity values of the compounds were determined on rats, after oral administration. The LD50 values were calculated according to the Litchfield-Wildoxon method.

[8] = Toxicity tests performed with compound SC-118; assay type: in vivo; details: rat, in vivo, CFY rats
Method: (§3) In order to give a more detailed information, in the following there are given the results of the toxicity tests performed with compound SC-118. The tests were carried out on CFY rats, each weighing 150 to 200 g.

CFY rats = test: Toxicity tests performed with compound SC-118; assay type: in vivo
Method: as §3

[9] = Determination of ulcer index

SMILES: N#CCCC1CN2CCc3cc4c(cc3C2CC1=O)OCO4 (stereo not drawn) [SC-118, 2-Oxo-3-(β-cyano-ethyl)-9,10-methylenedioxy-1,2,3,4,6,7-hexahydro-11bH-benzo(a)quinolisidine]
- selectivity ratio [1]: 29.2
- Inhibition of kaolin-induced oedema 2 hours after administration (kaolin-induced oedema; 25 mg./kg. p.o.): 18.1%
- Inhibition of kaolin-induced oedema 2 hours after administration (kaolin-induced oedema; 50 mg./kg. p.o.): 27.5%
- Inhibition of kaolin-induced oedema 2 hours after administration (kaolin-induced oedema; 75 mg./kg. p.o.): 43.7%
- Inhibition of kaolin-induced oedema 2 hours after administration (kaolin-induced oedema; 100 mg./kg. p.o.): 53.4%
- selectivity ratio [2]: 22.6
- Inhibition of carrageenin-induced oedema 1.5 hours after administration ([3]; 25 mg./kg. p.o.): 22.0%
- Inhibition of carrageenin-induced oedema 1.5 hours after administration ([3]; 50 mg./kg. p.o.): 30.6%
- Inhibition of carrageenin-induced oedema 1.5 hours after administration ([3]; 75 mg./kg. p.o.): 47.7%
- Inhibition of carrageenin-induced oedema 1.5 hours after administration ([3]; 100 mg./kg. p.o.): 52.7%
- Effect, % (cotton granuloma test) (Cotton granuloma): 26.4%
- Percentage inhibition 1 hour after administration (serotonine-induced oedema) ([4]; 25 mg./kg. p.o.): 28.5%
- Percentage inhibition 1 hour after administration (serotonine-induced oedema) ([4]; 50 mg./kg. p.o.): 42.1%
- Percentage inhibition 1 hour after administration (serotonine-induced oedema) ([4]; 75 mg./kg. p.o.): 48.7%
- Variation of body temperature ([5]; 25 mg./kg. p.o., 1 hour after administration): -1.67
- Variation of body temperature ([5]; 25 mg./kg. p.o., 2 hours after administration): -1.81
- Variation of body temperature ([5]; 25 mg./kg. p.o., 3 hours after administration): -1.60
- Variation of body temperature ([5]; 50 mg./kg. p.o., 1 hour after administration): -2.75
- Variation of body temperature ([5]; 50 mg./kg. p.o., 2 hours after administration): -3.34
- Variation of body temperature ([5]; 50 mg./kg. p.o., 3 hours after administration): -4.03
- Prolongation of the reaction time, % (2 hours after administration) [6]: 61.2%
- Activity, % (reduction of the number of writhings in relation to the controls) [7]: 41.8%
- Prolongation of the sleep period in relation to the untreated controls, % (central nervious system; 25 mg./kg. p.o.): 96.4%
- Prolongation of the sleep period in relation to the untreated controls, % (central nervious system; 50 mg./kg. p.o.): 253.0%
- LD50 (Acute toxicity tests): 1410 mg/kg
- LD50 ([8]; female, read-out: LD50, f): 1400 mg/kg
- LD50 ([8]; male, read-out: LD50, m): 1420 mg/kg
- Dead animals/treated animals (CFY rats; 750 mg./kg., 24 hours, female): 0/10
- Dead animals/treated animals (CFY rats; 750 mg./kg., 24 hours, male): 0/10
- Dead animals/treated animals (CFY rats; 750 mg./kg., 48 hours, female): 0/10
- Dead animals/treated animals (CFY rats; 750 mg./kg., 48 hours, male): 0/10
- Dead animals/treated animals (CFY rats; 750 mg./kg., 72 hours, female): 0/10
- Dead animals/treated animals (CFY rats; 750 mg./kg., 72 hours, male): 0/10
- Dead animals/treated animals (CFY rats; 1000 mg./kg., 24 hours, female): 2/10
- Dead animals/treated animals (CFY rats; 1000 mg./kg., 24 hours, male): 1/10
- Dead animals/treated animals (CFY rats; 1000 mg./kg., 48 hours, female): 2/10
- Dead animals/treated animals (CFY rats; 1000 mg./kg., 48 hours, male): 2/10
- Dead animals/treated animals (CFY rats; 1000 mg./kg., 72 hours, female): 2/10
- Dead animals/treated animals (CFY rats; 1000 mg./kg., 72 hours, male): 2/10
- Dead animals/treated animals (CFY rats; 1250 mg./kg., 24 hours, female): 3/10
- Dead animals/treated animals (CFY rats; 1250 mg./kg., 24 hours, male): 2/10
- Dead animals/treated animals (CFY rats; 1250 mg./kg., 48 hours, female): 3/10
- Dead animals/treated animals (CFY rats; 1250 mg./kg., 48 hours, male): 3/10
- Dead animals/treated animals (CFY rats; 1250 mg./kg., 72 hours, female): 3/10
- Dead animals/treated animals (CFY rats; 1250 mg./kg., 72 hours, male): 3/10
- Dead animals/treated animals (CFY rats; 1500 mg./kg., 24 hours, female): 6/10
- Dead animals/treated animals (CFY rats; 1500 mg./kg., 24 hours, male): 5/10
- Dead animals/treated animals (CFY rats; 1500 mg./kg., 48 hours, female): 6/10
- Dead animals/treated animals (CFY rats; 1500 mg./kg., 48 hours, male): 5/10
- Dead animals/treated animals (CFY rats; 1500 mg./kg., 72 hours, female): 6/10
- Dead animals/treated animals (CFY rats; 1500 mg./kg., 72 hours, male): 5/10
- Dead animals/treated animals (CFY rats; 1750 mg./kg., 24 hours, female): 6/10
- Dead animals/treated animals (CFY rats; 1750 mg./kg., 24 hours, male): 6/10
- Dead animals/treated animals (CFY rats; 1750 mg./kg., 48 hours, female): 8/10
- Dead animals/treated animals (CFY rats; 1750 mg./kg., 48 hours, male): 8/10
- Dead animals/treated animals (CFY rats; 1750 mg./kg., 72 hours, female): 8/10
- Dead animals/treated animals (CFY rats; 1750 mg./kg., 72 hours, male): 8/10
- Dead animals/treated animals (CFY rats; 2000 mg./kg., 24 hours, female): 10/10
- Dead animals/treated animals (CFY rats; 2000 mg./kg., 24 hours, male): 10/10
- Dead animals/treated animals (CFY rats; 2000 mg./kg., 48 hours, female): 10/10
- Dead animals/treated animals (CFY rats; 2000 mg./kg., 48 hours, male): 10/10
- Dead animals/treated animals (CFY rats; 2000 mg./kg., 72 hours, female): 10/10
- Dead animals/treated animals (CFY rats; 2000 mg./kg., 72 hours, male): 10/10
- Erosion ([9]; female): 0/10
- Ulcer ([9]; female): 0/10
- Erosion ([9]; male): 0/10
- Ulcer ([9]; male): 0/10

SMILES: COc1cc2c(cc1OC)C1CC(=O)C(CCC#N)CN1CC2 (stereo not drawn) [SCT-1, 2-Oxo-3-(β-cyano-ethyl)-9,10-dimethoxy-1,2,3,4,6,7-hexahydro-11bH-benzo(a)quinolizidine]
- selectivity ratio [1]: 12.4
- Inhibition of kaolin-induced oedema 2 hours after administration (kaolin-induced oedema; 25 mg./kg. p.o.): 20.5%
- Inhibition of kaolin-induced oedema 2 hours after administration (kaolin-induced oedema; 50 mg./kg. p.o.): 21.4%
- Inhibition of kaolin-induced oedema 2 hours after administration (kaolin-induced oedema; 75 mg./kg. p.o.): 24.8%
- Inhibition of kaolin-induced oedema 2 hours after administration (kaolin-induced oedema; 100 mg./kg. p.o.): 47.8%
- selectivity ratio [2]: 6.7
- Inhibition of carrageenin-induced oedema 1.5 hours after administration ([3]; 50 mg./kg. p.o.): 24.2%
- Inhibition of carrageenin-induced oedema 1.5 hours after administration ([3]; 75 mg./kg. p.o.): 25.7%
- Inhibition of carrageenin-induced oedema 1.5 hours after administration ([3]; 100 mg./kg. p.o.): 37.7%
- Percentage inhibition 1 hour after administration (serotonine-induced oedema) ([4]; 50 mg./kg. p.o.): 22.4%
- Percentage inhibition 1 hour after administration (serotonine-induced oedema) ([4]; 100 mg./kg. p.o.): 57.8%
- Prolongation of the sleep period in relation to the untreated controls, % (central nervious system; 25 mg./kg. p.o.): 132.8%
- Prolongation of the sleep period in relation to the untreated controls, % (central nervious system; 50 mg./kg. p.o.): 207.6%
- LD50 (Acute toxicity tests): 620 mg/kg
- Erosion ([9]; female): 4/10
- Ulcer ([9]; female): 2/10
- Erosion ([9]; male): 3/10
- Ulcer ([9]; male): 1/10

SMILES: COC(=O)CCC1CN2CCc3cc(OC)c(OC)cc3C2CC1=O (stereo not drawn) [SCT-2, 2-Oxo-3-(β-methoxycarbonyl-ethyl)-9,10-dimethoxy-1,2,3,4,6,7-hexahydro-11bH-benzo(a)quinolizidine]
- Inhibition of kaolin-induced oedema 2 hours after administration (kaolin-induced oedema; 25 mg./kg. p.o.): 5.8%
- Inhibition of kaolin-induced oedema 2 hours after administration (kaolin-induced oedema; 50 mg./kg. p.o.): 21.4%
- Inhibition of kaolin-induced oedema 2 hours after administration (kaolin-induced oedema; 75 mg./kg. p.o.): 24.7%
- Inhibition of carrageenin-induced oedema 1.5 hours after administration ([3]; 50 mg./kg. p.o.): 14.3%
- Inhibition of carrageenin-induced oedema 1.5 hours after administration ([3]; 75 mg./kg. p.o.): 2.8%
- Inhibition of carrageenin-induced oedema 1.5 hours after administration ([3]; 100 mg./kg. p.o.): 17.0%
- Percentage inhibition 1 hour after administration (serotonine-induced oedema) ([4]; 100 mg./kg. p.o.): 16.0%
- Prolongation of the reaction time, % (2 hours after administration) [6]: 26.4%
- Prolongation of the sleep period in relation to the untreated controls, % (central nervious system; 50 mg./kg. p.o.): 28.3%

SMILES: CCOc1cc2c(cc1OCC)C1CC(=O)C(CCC#N)CN1CC2 (stereo not drawn) [SCT-3, 2-Oxo-3-(β-cyano-ethyl)-9,10-diethoxy-1,2,3,4,6,7-hexahydro-11bH-benzo(a)quinolizidine]
- selectivity ratio [1]: 15
- Inhibition of kaolin-induced oedema 2 hours after administration (kaolin-induced oedema; 25 mg./kg. p.o.): 17.3%
- Inhibition of kaolin-induced oedema 2 hours after administration (kaolin-induced oedema; 50 mg./kg. p.o.): 19.4%
- Inhibition of kaolin-induced oedema 2 hours after administration (kaolin-induced oedema; 75 mg./kg. p.o.): 48.9%
- Inhibition of kaolin-induced oedema 2 hours after administration (kaolin-induced oedema; 100 mg./kg. p.o.): 45.9%
- selectivity ratio [2]: 19.8
- Inhibition of carrageenin-induced oedema 1.5 hours after administration ([3]; 25 mg./kg. p.o.): 25.1%
- Inhibition of carrageenin-induced oedema 1.5 hours after administration ([3]; 50 mg./kg. p.o.): 41.5%
- Inhibition of carrageenin-induced oedema 1.5 hours after administration ([3]; 100 mg./kg. p.o.): 53.7%
- Percentage inhibition 1 hour after administration (serotonine-induced oedema) ([4]; 50 mg./kg. p.o.): 36.2%
- Percentage inhibition 1 hour after administration (serotonine-induced oedema) ([4]; 100 mg./kg. p.o.): 47.0%
- Prolongation of the reaction time, % (2 hours after administration) [6]: 33.9%
- Prolongation of the sleep period in relation to the untreated controls, % (central nervious system; 25 mg./kg. p.o.): 131.7%
- Prolongation of the sleep period in relation to the untreated controls, % (central nervious system; 50 mg./kg. p.o.): 240.2%
- LD50 (Acute toxicity tests): 780 mg/kg
- Erosion ([9]; female): 4/10
- Ulcer ([9]; female): 0/10
- Erosion ([9]; male): 6/10
- Ulcer ([9]; male): 1/10
